According to patent US20100113484A1, “TREATING AGENT OF UROPATHY” (ASKA PHARMACEUTICAL CO., LTD., priority 2006, published 2010):

Legend:
[1] = molecular target: T1, human recombinant PDE9 protein (Homo sapiens, UniProt O76083); assay: Measurement of PDE9-inhibiting activity ([3H]-cGMP hydrolysis); format: biochemical; details: Tables A and C; read-out: Inhibiting Activity (IC50 value) PDE9
T1 construct: made in house; host or cells: COS-1 cells, transient transfection with pcDNA 3.1 (+); supernatant of the homogenate, not purified
Protocol: Based on the base sequence of hsPDE9A1 registered with GenBank database (accession No.: AF048837), hsPDE9A1 fragment was amplified by polymerase chain reaction under the following conditions, using the following sequence (Amasham Pharmacia Biotech) as the primer and Human Prostate […] cDNA library (CLONTECH) as the template DNA, with Pfu Turbo DNA polymerase ([…]):
PCR condition: [95° C., 5 min]×1 cycle, [(95° C., 1 min), (58° C., 2 min), (72° C., 3 min)]×25 cycles, [72° C., 10 min]×1 cycle
Thus obtained hsPDE9A1 fragment was given a restricted enzymatic treatment with NheI and NotI, and thereafter inserted into pcDNA 3.1 (+) expression vector (Invitrogen) to let it serve as a human PDE9 expression vector.
(§1) Human PDE9 expression vector-transformed Escherichia coli was mass incubated to produce a large amount of human PDE9 expression vector, which was transiently transfected into COS-1 cells, with LIPOFECTAMINE 2000 Reagent (GIBCO). The cells were homogenized in ice-cooled buffer A (40 mmol/L Tris-HCl, pH7.5, 15 mmol/L benzamidine, 15 mmol/L 2-mercaptoethanol, 1 μg/mL Pepstatin A, 1 μg/mL Leupeptin, 5 mmol/L EDTA) and centrifuged at 4° C., 14,000×g for 10 minutes. The supernatant was isolated to provide human recombinant PDE9 protein solution.
This mixed solution was incubated at 30° C. for 30 minutes and the enzymatic reaction of PDE9 was terminated by heating the system in boiling water for 90 seconds. Returning the system to room temperature, 50 μL of Snake venom (SIGMA: 1 mg/mL) was added, followed by 10 minutes' incubation at 30° C., to convert the [^3H]-5′-GMP produced in the previous reaction to [^3H]-guanosine. […] Thereafter [^3H]-guanosine was eluted with 3 mL of 3 mol/L aqueous ammonia and its radiation activity was measured with liquid scintillation counter.
PDE9 inhibition of the tested compound can be calculated by the following formula: […]
From the percent inhibition at various concentration levels of each tested compound, its IC50 value against PDE9 can be determined.

[2] = tested on: partial urethra obstruction model in guinea pigs; assay: Dysuria pathological model: partial urethra obstruction model, cystometry; format: in vivo, Hartley female guinea pigs; details: guinea pig, i.v.
Protocol: Three-four weeks old Hartley female guinea pigs (Japan SLC, Inc.) were given celiotomy under anesthesia with pentobarbital (30 mg/kg i.p.) and in their urethra to the peripheral side by 1-2 mm from the bladder neck, each a polyethylene tube of 1.4 mm in width and 2.0 mm in inner diameter was placed. After closing the wound, the guinea pigs were bred for at least 3 weeks to produce partial urethra obstruction model in guinea pigs in which occurrence of intravesical pressure rise not accompanied by micturition (uninhibited contraction) and residual urine were observed.
The model was catheterized under anesthesia with urethane (1 g/kg i.p.) at the apex of urinary bladder and right jugular vein for cystometrography and intravenous administration, respectively. The other end of the bladder catheter was connected to a pressure transducer and infusion pump via a three way stop-cock, and physiological saline was continuously infused into the bladder through the infusion pump at a rate of 0.4 mL/min to induce micturition reflex. Immediately after the micturition reflex was induced, infusion of physiological saline into the bladder was stopped. The intravesical pressure at the time the micturition reflex was induced was measured with the pressure transducer, and the obtained cystometrogram was recorded with pen recorder. The urine voided was collected with disposable type weighing dish and its weight was measured. Further the physiological saline remained in the bladder was sucked with syringe via the bladder catheter and the residual urine volume was measured. The operations of suspending the infusion of physiological saline upon induction of micturition reflex, and about 1 minute thereafter resuming the infusion of physiological saline to induce micturition reflex were repeated plural times (generally 4 times) to stabilize the micturition reflex.
After stabilizing the micturition reflex, a compound solution (prepared by dissolving the compound or methanesulfonic acid salt thereof in DMSO and diluting it with physiological saline or distilled water) or physiological saline was administered into the vein at a volume of 10 mL/kg over 4 minutes, and simultaneously the above-described micturition reflex operations were repeated until 30 minutes passed after initiation of the administration, while measuring the intravesical pressure and the volumes of micturition and residual urine. Also the frequency of uninhibited contraction occurrence during the above-described operations was recorded.

[3] = molecular target: T2, human recombinant PDE5 protein (Homo sapiens, UniProt O76074); assay: Measurement of PDE5-inhibiting activity; format: biochemical; details: Tables A and C; read-out: Inhibiting Activity (IC50 value) PDE5
T2 construct: made in house; host or cells: COS-1 cells, transient transfection with pcDNA 3.1 (+); supernatant of the homogenate, not purified
Protocol: PCR condition: [94° C., 2 min]×1 cycle, [(94° C., 30 sec), (65° C., 30 sec), (68° C., 3 min)]×25 cycles, [68° C., 6 min]×1 cycle
Thus obtained hsPDE5A1 fragment was given a restricted enzymatic treatment with XBaI and EcoRI, and thereafter inserted into pcDNA 3.1 (+) expression vector (Invitrogen) to let it serve as a human PDE5 expression vector.
as §1, with “PDE5” for “PDE9”, “A” for “A (40 mmol/L Tris-HCl, pH7.5, 15 mmol/L benzamidine, 15 mmol/L 2-mercaptoethanol, 1 μg/mL Pepstatin A, 1 μg/mL Leupeptin, 5 mmol/L EDTA)”

T1 sequence (O76083 whole entry): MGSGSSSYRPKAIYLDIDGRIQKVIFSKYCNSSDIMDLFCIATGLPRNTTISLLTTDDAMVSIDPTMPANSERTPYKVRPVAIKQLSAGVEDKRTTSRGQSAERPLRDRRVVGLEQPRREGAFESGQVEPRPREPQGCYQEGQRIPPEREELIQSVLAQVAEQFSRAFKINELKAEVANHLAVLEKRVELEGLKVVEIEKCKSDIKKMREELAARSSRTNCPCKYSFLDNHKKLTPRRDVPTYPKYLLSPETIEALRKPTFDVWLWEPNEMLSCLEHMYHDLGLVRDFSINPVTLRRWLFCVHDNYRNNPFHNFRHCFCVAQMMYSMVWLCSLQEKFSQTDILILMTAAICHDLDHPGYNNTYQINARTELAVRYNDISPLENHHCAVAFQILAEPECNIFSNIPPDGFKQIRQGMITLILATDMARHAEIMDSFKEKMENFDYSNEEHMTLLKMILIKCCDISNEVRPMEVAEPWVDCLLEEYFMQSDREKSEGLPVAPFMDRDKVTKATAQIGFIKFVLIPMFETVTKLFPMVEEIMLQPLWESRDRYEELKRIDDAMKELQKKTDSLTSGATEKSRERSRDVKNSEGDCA

Structure (SMILES)	IC50 [1]	Frequency of occurrence of uninhibited contraction after administration ([2]; 0.3 mg/kg)	Frequency of occurrence of uninhibited contraction volume change ([2]; 0.3 mg/kg)	Residual urine volume after administration ([2]; 0.3 mg/kg)	Residual urine volume volume change ([2]; 0.3 mg/kg)	Frequency of occurrence of uninhibited contraction after administration ([2]; 3 mg/kg)	Frequency of occurrence of uninhibited contraction volume change ([2]; 3 mg/kg)	Residual urine volume after administration ([2]; 3 mg/kg)	Residual urine volume volume change ([2]; 3 mg/kg)	Frequency of occurrence of uninhibited contraction after administration ([2]; 10 mg/kg)	Frequency of occurrence of uninhibited contraction volume change ([2]; 10 mg/kg)	Residual urine volume after administration ([2]; 10 mg/kg)	Residual urine volume volume change ([2]; 10 mg/kg)	IC50 [3]	Frequency of occurrence of uninhibited contraction after administration ([2]; 1 mg/kg)	Frequency of occurrence of uninhibited contraction volume change ([2]; 1 mg/kg)	Residual urine volume after administration ([2]; 1 mg/kg)	Residual urine volume volume change ([2]; 1 mg/kg)
Cc1c(C(=O)O)sc2nc(Cc3cccc(Cl)c3)[nH]c(=O)c12 [A-4, 2-(3-Chlorobenzyl)-5-methyl-4-oxo-3,4-dihydrothieno[2,3-d]-pyrimidine-6-carboxylic acid]	30 nM	0.80 times/min	−0.36 times/min	1.08 mL	+0.13 mL	0.49 times/min	−0.67 times/min	1.11 mL	+0.16 mL	0.60 times/min	−0.56 times/min	0.95 mL	0.00 mL	6770 nM	–	–	–	–
Cc1c(C(=O)O)sc2nc(Cc3ccc(Cl)c(Cl)c3)[nH]c(=O)c12 [A-7, 2-(3,4-Dichlorobenzyl)-5-methyl-4-oxo-3,4-dihydrothieno-[2,3-d]pyrimidine-6-carboxylic acid]	38 nM	–	–	–	–	0.77 times/min	−0.39 times/min	1.03 mL	-0.30 mL	0.64 times/min	−0.47 times/min	0.64 mL	-0.42 mL	915 nM	0.79 times/min	−0.17 times/min	0.86 mL	+0.04 mL
O=C(O)c1cc2c(=O)[nH]c(CC3=CCCC3)nc2s1 [A-21, 2-(Cyclopent-1-enylmethyl)-4-oxo-3,4-dihydrothieno[2,3-d]-pyrimidine-6-carboxylic acid]	22 nM	0.55 times/min	−0.53 times/min	1.02 mL	-0.52 mL	0.78 times/min	−0.66 times/min	0.88 mL	-0.49 mL	0.83 times/min	−0.74 times/min	0.62 mL	-1.06 mL	12100 nM	–	–	–	–
Cc1c(C(=O)O)sc2nc(Cc3cccc(Cl)c3)[nH]c(=S)c12 [A-26, 2-(3-Chlorobenzyl)-5-methyl-4-thioxo-3,4-dihydrothieno-[2,3-d]pyrimidine-6-carboxylic acid]	5 nM	1.02 times/min	−0.10 times/min	0.91 mL	-0.11 mL	0.76 times/min	−0.36 times/min	0.27 mL	-0.75 mL	0.59 times/min	−0.53 times/min	0.48 mL	-0.54 mL	1110 nM	–	–	–	–
